Measured values as given in patent publication US5149717A, “Alkanophenones useful for treating allergies” (Ciba-Geigy Corporation, priority 1988, dated 1992).
Counter-ions that a name gives are not always drawn.

Tests used:
[1] = molecular target: phospholipase C obtained from human thrombocytes; test: In vitro test to determine the inhibition of phospholipase C obtained from human thrombocytes; assay type: biochemical; conditions: under the described test conditions
Protocol: Human thrombocytes are obtained from "Buffy coats" by fractional centrifugation and are then deep-frozen. The phospholipase C is freed by ultrasound treatment of the cell suspension and after ultracentrifugation (150,000×g for 1 hour) is present in soluble form in the supernatant.
In order to determine the enzyme activity, enzyme (20-100 μg of protein) is incubated at 37° for 5 minutes in 0.025M tris/maleate buffer pH 6 with the addition of 0.2 mmol of CaCl2 and 0.02 mmol of radioactively labelled substrate, phosphatidyl-[^14 C]-inositol. The reaction is stopped by shaking with CHCl3 /CH3 OH 2:1 (v/v), in the course of which unused substrate is extracted into the organic phase, while the reaction product, ^14 C-inositol phosphate, remains in the aqueous phase and can be measured by radiometry of an aliquot.
In order to detect an inhibitory action of test substances on phospholipase C, the test substances are added to the incubation mixture in the form of solutions in water, dimethyl sulfoxide (final concentration in the batch up to 5%, v/v) or ethanol (final concentration in the batch up to 2.5%, v/v). […] The IC50 is determined graphically by plotting the percentage inhibition on the ordinate against the log of the concentration (μm) on the abscissa.

[2] = molecular target: phospholipase A2 obtained from human leucocytes; test: In vitro test to determine the inhibition of phospholipase A2 obtained from human leucocytes; assay type: biochemical; conditions: under the described test conditions
Protocol: Neutrophilic polymorpho-nuclear human leucocytes are isolated from "Buffy coats" by multi-step fractional sedimentation and are deep-frozen. The phospholipase A2 is extracted from the cell suspension by homogenisation with the addition of ice-cold 0.36N H2 SO4 in 2N NaCl and the supernatant obtained after centrifugation at 10,000×g is dialysed against sodium acetate buffer pH 4.5.
In order to determine the enzyme activity, enzyme (10-30 μg of protein) is incubated at 37° for 1 hour in 0.1M tris/HCl buffer pH 7 with the addition of 1 mmol of CaCl2 and substrate consisting of phospholipids (2 μm) of Escherichia coli radioactively labelled biosynthetically with ^14 C-oleic acid. The reaction is stopped by the addition of Dole reagent (isopropanol/heptane/1N H2 SO4 40:10:1, v/v) and the ^14 C-oleic acid freed selectively by phospholipase A2 is extracted. […]
In order to detect an inhibitory action of test substances on phospholipase A2, the test substances are added to the incubation mixture in the form of solutions in water, dimethyl sulfoxide (final concentration in the batch up to 5%, v/v) or ethanol (final concentration in the batch up to 2.5%, v/v). […] The IC50 is determined graphically by plotting the percentage inhibition on the ordinate against the log of the concentration (μm) on the abscissa.

- IC50 [1]: 20 µM
- IC50 [2]: 1.6 mM
SMILES: CCN(CC)CCCC(C)Nc1c2ccc(Cl)cc2nc2ccc(OC)cc12 (centres unmarked) [MEPACRINE, quinacrin hydrochloride]
